From patent publication US12564638B2 (SHANGHAITECH UNIVERSITY, priority 2019, dated 2026)
Read-outs that look alike come from different tables or passages of the source.

Tests used:
Format in all cases: cell-based
[1] = system: HCC827 cells (EGFR Exon19 del, non-small cell lung cancer cells); assay: Cell viability assay (WST/CCK8), HCC827 cells; settings: Homo sapiens, HCC827, 72 h, HCC827 (Exon19 Del), 72 hours, read-out: IC50 (half inhibitory concentration)
Method in brief: (§1)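 Plated 3 000 cells/well in complete RPMI1640 the day before dosing; controls were DMSO (negative) and EGFR TKIs (positive).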

[2] = system: H1975 (EGFR T790M+L858R mutation, non-small cell lung cancer cell line); assay: Cell viability assay (WST/CCK8), H1975 cells; settings: Homo sapiens, NCI-H1975, H1975 (L858R + T790M), read-out: IC50 (half inhibitory concentration)
Method in brief: (§2)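 Cells seeded at 3 000 per well in RPMI1640 complete medium, dosed next day with compounds at indicated concentrations (DMSO negative control, EGFR TKIs as positive control).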

[3] = molecular target: T1, EGFR (L858R+T790M) in H1975 cells (Homo sapiens, UniProt P00533, L858R/T790M); assay: Western blot of EGFR protein level (degradation), H1975 cells; settings: H1975 cells, 1, 10, 50, 100, 500 nM, 16 hours
T1 construct: determined in H1975 cells with the EGFR L858R+T790M mutation; endogenous in cells; host or cells: H1975
T1 sequence (P00533 25-1210 T790M/L858R): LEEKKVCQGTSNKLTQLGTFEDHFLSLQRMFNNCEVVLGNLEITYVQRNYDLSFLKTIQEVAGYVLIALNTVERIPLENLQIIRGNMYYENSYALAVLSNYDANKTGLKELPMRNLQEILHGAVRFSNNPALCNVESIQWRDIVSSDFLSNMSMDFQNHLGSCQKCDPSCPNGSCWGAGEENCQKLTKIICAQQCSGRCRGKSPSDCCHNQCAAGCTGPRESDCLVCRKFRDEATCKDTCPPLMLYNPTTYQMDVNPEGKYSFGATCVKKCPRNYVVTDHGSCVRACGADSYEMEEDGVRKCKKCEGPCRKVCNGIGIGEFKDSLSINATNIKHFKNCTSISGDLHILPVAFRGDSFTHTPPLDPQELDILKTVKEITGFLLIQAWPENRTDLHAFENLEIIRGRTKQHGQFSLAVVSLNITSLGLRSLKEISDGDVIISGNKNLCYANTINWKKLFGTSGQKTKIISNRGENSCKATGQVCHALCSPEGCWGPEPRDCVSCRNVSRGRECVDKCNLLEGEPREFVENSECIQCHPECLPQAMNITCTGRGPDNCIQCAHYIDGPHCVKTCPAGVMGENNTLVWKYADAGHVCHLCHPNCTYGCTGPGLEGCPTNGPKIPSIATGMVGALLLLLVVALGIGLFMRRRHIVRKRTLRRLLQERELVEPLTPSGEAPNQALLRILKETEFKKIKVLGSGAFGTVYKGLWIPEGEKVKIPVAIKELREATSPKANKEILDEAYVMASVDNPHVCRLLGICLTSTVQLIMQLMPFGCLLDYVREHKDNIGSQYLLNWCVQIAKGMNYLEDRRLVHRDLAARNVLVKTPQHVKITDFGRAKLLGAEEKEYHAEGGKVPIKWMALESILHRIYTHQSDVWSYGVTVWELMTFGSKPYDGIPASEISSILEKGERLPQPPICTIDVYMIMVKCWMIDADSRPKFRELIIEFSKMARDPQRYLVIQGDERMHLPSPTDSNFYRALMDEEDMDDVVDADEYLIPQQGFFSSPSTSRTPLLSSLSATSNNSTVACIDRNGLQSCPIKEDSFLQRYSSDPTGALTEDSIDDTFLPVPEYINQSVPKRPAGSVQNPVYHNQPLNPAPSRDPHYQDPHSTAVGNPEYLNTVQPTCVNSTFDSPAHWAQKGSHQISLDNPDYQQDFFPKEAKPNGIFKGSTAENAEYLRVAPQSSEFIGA
Description: Cancer cells were planted in 12-well-plate at the density of 0.15 million cells per well with 1 mL RPMI1640 completed culture medium. Compounds with different concentrations (DMSO as a solution system, and 1 μL of compounds of different concentrations was added to 1 mL of the cell culture medium) were added to the cells planted one day before. 16 hours after treated, the medium was discarded and the cells were washed with precooled PBS. The cells were placed on ice and treated with RIPA protein lysis buffer containing halt protease and phosphatase inhibitor. After centrifugation at 10000 rpm at 4° C. for 10 minutes, the supernatant was collected. The same amount of proteins were added into 4×SDS loading buffer and heated at 95° C. for 5 minutes for denaturation, and the samples were stored at −20° C. after denaturation, or directly conducted protein electrophoresis. The 4-20% gradient preformed Electrophoretic gels were purchased from Kingsy. The electrophoresis tank and related components were purchased from Bio-rad company, and the electrophoresis condition was isobaric 120V for 2 hours. PVDF membrane was used for the transmembrane, and the whole transmembrane process was carried out on ice with a constant current of 0.4 amperes for an hour. The membrane was blocked with 5% skimmed milk dilution with TBST buffer. Refer to the corresponding antibody instructions for the specific steps of immunoblotting.
The degradation efficacy of the dacomitinib-based compounds on EGFR was determined in HCC827 and H1975 cell lines, which harboring EGFR Exon 19del and EGFR L858R+T790M mutations respectively.
In FIG. 2, concentration-dependent degradation assays were performed on non-small cell lung cancer cell line H1975 (T790M-mutant cell line, the most common mutation type of first-generation EGFR inhibitors). […] The DC50 of compounds SIAIS262032 and SIAIS262037 are both about 50 nM, which provides great potential for drug development to overcome drug resistance caused by EGFR T790M mutation.
The degradation efficacy of the canertinib-based compounds on EGFR was determined in H1975 cells with the EGFR L858R+T790M mutation.
The H1975 cells were treated with the PROTADs with different concentrations (1, 10, 50, 100, 500 nM) for 16 hours, and then the western blot assay was taken to estimate the EGFR levels of the cell lysates in each group. […] The DC50 of SIAIS262125 and SIAIS262182 are both less than 10 nM, much better than canertinib, which provides great potential for drug development to overcome drug resistance caused by EGFR T790M mutation.

[4] = system: PC9 cells (EGFR Exon 19 del, non-small cell lung cancer cells); assay: Cell viability assay (WST/CCK8), PC9 cells; settings: Homo sapiens, PC-9, PC9 (Exon19 Del), 72 hours, read-out: IC50 (half inhibitory concentration)
Method in brief: as §1

[5] = system: PC9BracA1 (EGFR Exon 19 del+T790M, non-small cell lung cancer cells); assay: Cell viability assay (WST/CCK8), PC9Brac1 cells; settings: read-out: IC50 (half inhibitory concentration)
Method in brief: as §2

[6] = system: BT474 cells (HER2 positive breast cancer cells); assay: Cell viability assay (CCK8), BT474 cells; settings: for IC50: Homo sapiens, BT-474, Table 10, BT474, 72 hours, read-out: IC50 (half inhibitory concentration)
Method in brief: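 HER2-overexpressing BT474 cells in RPMI1640 were exposed to compounds for 72 hours over 10 concentrations (3-fold dilution, top 10 μM). Viability was measured with CCK8 reagent against a DMSO control, and IC50 was taken from growth inhibition curves.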

[7] = molecular target: EGFR (Exon 19del) in HCC827 cells (Homo sapiens, UniProt P00533, DEL746-750); assay: Western blot of EGFR protein level (degradation), HCC827 cells; settings: HCC827 cells, 1, 10, 50, 100, 500 nM, 16 hours
Sequence of EGFR (Exon 19del) in HCC827 cells (P00533 with tags, fused parts or gaps DEL746-750): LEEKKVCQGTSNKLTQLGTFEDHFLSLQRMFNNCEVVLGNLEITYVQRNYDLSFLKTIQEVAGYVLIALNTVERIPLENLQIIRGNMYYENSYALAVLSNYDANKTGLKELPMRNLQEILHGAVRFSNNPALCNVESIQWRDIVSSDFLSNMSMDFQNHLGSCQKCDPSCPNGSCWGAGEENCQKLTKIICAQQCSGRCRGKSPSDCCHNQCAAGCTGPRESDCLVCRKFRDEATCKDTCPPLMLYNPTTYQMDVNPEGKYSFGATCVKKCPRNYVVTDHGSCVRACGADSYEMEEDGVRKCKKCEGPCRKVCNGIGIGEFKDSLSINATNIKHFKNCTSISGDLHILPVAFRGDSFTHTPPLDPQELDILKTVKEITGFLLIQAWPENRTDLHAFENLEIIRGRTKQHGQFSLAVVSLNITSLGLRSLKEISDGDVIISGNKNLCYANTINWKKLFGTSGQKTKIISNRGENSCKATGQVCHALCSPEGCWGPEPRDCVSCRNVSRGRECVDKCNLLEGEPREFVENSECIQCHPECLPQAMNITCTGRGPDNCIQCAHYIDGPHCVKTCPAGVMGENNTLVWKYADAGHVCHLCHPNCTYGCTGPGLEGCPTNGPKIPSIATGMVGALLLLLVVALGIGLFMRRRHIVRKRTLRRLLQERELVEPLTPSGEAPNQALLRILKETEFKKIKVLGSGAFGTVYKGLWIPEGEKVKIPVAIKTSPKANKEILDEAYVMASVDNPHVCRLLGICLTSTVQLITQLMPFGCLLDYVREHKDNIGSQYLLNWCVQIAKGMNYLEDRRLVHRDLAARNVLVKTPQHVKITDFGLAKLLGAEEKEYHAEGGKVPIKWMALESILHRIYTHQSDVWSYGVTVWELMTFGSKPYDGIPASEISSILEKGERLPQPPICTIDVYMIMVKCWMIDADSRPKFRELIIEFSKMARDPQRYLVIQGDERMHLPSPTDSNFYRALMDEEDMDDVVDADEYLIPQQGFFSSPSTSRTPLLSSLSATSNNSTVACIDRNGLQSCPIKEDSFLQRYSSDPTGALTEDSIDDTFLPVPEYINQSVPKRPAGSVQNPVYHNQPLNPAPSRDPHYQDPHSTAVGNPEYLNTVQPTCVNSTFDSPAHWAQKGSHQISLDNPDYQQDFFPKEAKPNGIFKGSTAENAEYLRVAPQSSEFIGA
Description: Cancer cells were planted in 12-well-plate at the density of 0.15 million cells per well with 1 mL RPMI1640 completed culture medium. Compounds with different concentrations (DMSO as a solution system, and 1 μL of compounds of different concentrations was added to 1 mL of the cell culture medium) were added to the cells planted one day before. 16 hours after treated, the medium was discarded and the cells were washed with precooled PBS. The cells were placed on ice and treated with RIPA protein lysis buffer containing halt protease and phosphatase inhibitor. After centrifugation at 10000 rpm at 4° C. for 10 minutes, the supernatant was collected. The same amount of proteins were added into 4×SDS loading buffer and heated at 95° C. for 5 minutes for denaturation, and the samples were stored at −20° C. after denaturation, or directly conducted protein electrophoresis. The 4-20% gradient preformed Electrophoretic gels were purchased from Kingsy. The electrophoresis tank and related components were purchased from Bio-rad company, and the electrophoresis condition was isobaric 120V for 2 hours. […]
The degradation efficacy of the dacomitinib-based compounds on EGFR was determined in HCC827 and H1975 cell lines, which harboring EGFR Exon 19del and EGFR L858R+T790M mutations respectively. […]

[8] = Table 6, canertinib-based compounds, WST
[9] = Table 7, canertinib-based compounds
[10] = Table 7, canertinib-based compounds, PC9Brca1 (Ex19del + T790M)
[11] = PC9Brac1 (Ex19del + T790M), 72 hours, WST

SMILES	IC50 ([1]; WST (CCK8)) [nM]	IC50 [1, 8] [nM]	IC50 ([2]; 72 hours, WST) [nM]	IC50 [2, 9] [nM]	EGFR degradation (EGFR level, western blot) [3]	IC50 [4, 8] [nM]	IC50 [5, 10] [nM]	antineoplastic activity (in words) ([6]; BT474 cells, 72 hours)	IC50 [6] [nM]	IC50 ([4]; WST (CCK8)) [nM]	IC50 [5, 11] [nM]	EGFR degradation (EGFR level, western blot) [7]
C=CC(=O)Nc1cc2c(Nc3ccc(F)c(Cl)c3)ncnc2cc1OCCCN1CCN(C(=O)CCCCCNc2cccc3c2C(=O)N(C2CCC(=O)NC2=O)C3=O)CC1 (stereo not drawn) [SIAIS262125, N-(4-((3-chloro-4-fluorophenyl)amino)-7-(3-(4-(6-((2-(2,6-dioxopiperidin-3-yl)-1,3-dioxoisoindolin-4-yl)amino)hexanoyl)piperazin-1-yl)propoxy)quinazolin-6-yl)acrylamide]	0.3	0.3	< 25	15	obvious EGFR degradation efficacy	1.3	79	better antineoplastic activity than the relative EGFR TKIs	9.6			
COc1cc2ncnc(Nc3ccc(F)c(Cl)c3)c2cc1NC(=O)/C=C/CN1CCCCC1 [dacomitinib, reference compound]	0.5		834							0.4	674	couldn't degrade EGFR
C=CC(=O)Nc1cc2c(Nc3ccc(F)c(Cl)c3)ncnc2cc1OCCCN1CCN(CCCCCCNc2cccc3c2C(=O)N(C2CCC(=O)NC2=O)C3=O)CC1 (stereo not drawn) [SIAIS262182, N-(4-((3-chloro-4-fluorophenyl)amino)-7-(3-(4-(6-((2-(2,6-dioxopiperidin-3-yl)-1,3-dioxoisoindolin-4-yl)amino)hexyl)piperazin-1-yl)propoxy)quinazolin-6-yl)acrylamide]		1.4	< 25	12	obvious EGFR degradation efficacy	11.1	192		5			
COc1cc2ncnc(Nc3ccc(F)c(Cl)c3)c2cc1NC(=O)/C=C/CN1CCC(N2CCN(C(=O)CCCCCSc3cccc4c3CN(C3CCC(=O)NC3=O)C4=O)CC2)CC1 (stereo not drawn) [SIAIS262035, (E)-N-(4-((3-chloro-4-fluorophenyl)amino)-7-methoxyquinazolin-6-yl)-4-(4-(4-(6-((2-(2,6-dioxopiperidin-3-yl)-1-oxoisoindolin-4-yl)thio)hexanoyl)piperazin-1-yl)piperidin-1-yl)but-2-enamide]	2.2		514		obvious EGFR degradation efficacy				2.1	6.1	491	
C=CC(=O)Nc1cc2c(Nc3ccc(F)c(Cl)c3)ncnc2cc1OCCCN1CCC(N2CCN(CCCCCCSc3cccc4c3CN(C3CCC(=O)NC3=O)C4=O)CC2)CC1 (stereo not drawn) [SIAIS262180, N-(4-((3-chloro-4-fluorophenyl)amino)-7-(3-(4-(4-(6-((2-(2,6-dioxopiperidin-3-yl)-1-oxoisoindolin-4-yl)thio)hexyl)piperazin-1-yl)piperidin-1-yl)propoxy)quinazolin-6-yl)acrylamide]		4.2		24	obvious EGFR degradation efficacy	10.2	570		4.4			
